According to US12215133B2 (BrightGene Bio-Medical Technology Co., Ltd., priority 2021, dated 2025):
Marks after values point to notes of the source that are not given here.

Legend:
db/db mice [1] = experiment: Inhibitory effect of BG128 on hyperglycemia in db/db mice (Experimental Example 3); type: in vivo
Method: 55 6-8 week-old SPF-grade male db/db mice were purchased from Zhejiang Vital River Experimental Animal Technology Co., Ltd.
According to the dosage regimen in Table 7, a certain amount of Tirzepatide and BG128 were weighed and the vehicle (pH=7.0, 20 mM sodium citrate buffer) was added to formulated to the corresponding concentration. The formulation was performed once every 7 days, and the formulated mixture was sub-packaged and stored at 2° C.-8° C. in the dark.
Before the administration, according to the body weight and fasting blood glucose, the animals were grouped into: db/db-ND group, Tirzepatide—0.15 mg/kg group, BG128—0.05 mg/kg group, BG128—0.15 mg/kg group and BG128—0.5 mg/kg group, and each group have 11 animals; and see Table 7 for details.
The day of the first administration was recorded as d1, and the time was recorded by analogy; Tirzepatide and BG128 were administered once every three days, and the time points were d1, d4, d7, d10, d13, d16, d19, d22, d25 and d28, a total of 10 administrations; and see Table 7 for details.
Weighing: animals were weighed before administration once every three days until the end of the experiment.
The food intake of the animals was recorded starting at three days before the grouping for administration until the end of the experiment. The remaining amount was weighed before administration each time.
1) Non-fasting blood glucose determination: first administration 0 h (pre), 1 h, 2 h, 3 h, 6 h, 24 h, 48 h, 72 h;
2) Fasting blood glucose: the determination dates were respectively d-1 (before grouping), d7, d13, d19, d25 and d31. The animals were fasted for 6 hours, and the fasting blood glucose was determined before administration.
3 days after the last administration, the animals were weighed and fasted for 6 hours, and the fasting blood glucose of the animals was determined; after anesthesia, a portion of non-anticoagulated whole blood was collected through the orbital venous plexus, stood at room temperature for 30 minutes, and centrifuged at 5000 rpm for 5 minutes, the serum was separated and frozen at −80° C. for the determination of serum insulin content; a portion of anticoagulated whole blood was collected for the determination of HbA1c content. The serum insulin was determined by Elisa method.
The data was organized in Excel 2017 and Prism6.0, and the data was expressed as Mean±SEM (standard error). One-way ANOVA was used for analysis, and Tukey was selected as the analysis method for comparing significance of difference between groups; when the two groups were compared, T-test was used for two-tailed test between the two groups. […]

db/db mice [2] = experiment: as above; type: in vivo; details: for Insulin in serum: 3 days after the last administration; for Insulin in serum / Fasting blood glucose: n = 11; for non-fasting blood glucose after the first administration: FIG. 11
[3] = 0.15 mg/kg s.c. once every three days, anticoagulated whole blood, end of experiment, Mean ± SEM
[4] = 0.5 mg/kg s.c. once every three days, anticoagulated whole blood, end of experiment, Mean ± SEM
[5] = 0.05 mg/kg s.c. once every three days, anticoagulated whole blood, end of experiment, Mean ± SEM

SMILES: CNC(CCCCNC(=O)COCCOCCOCCNC(=O)COCCOCCOCCNC(=O)CCC(NC(=O)CC(=O)O)C(=O)O)C(N)=O (stereo not shown) [BG128]
- HbA1C (db/db mice [1]; [3]): 5.31 ± 0.19
- HbA1C (db/db mice [1]; [4]): 4.68 ± 0.20
- HbA1C% (db/db mice [1]; [4]): 3.33 ± 0.16^abde %
- blood sugar suppression effect (non-fasting) compared with Tirzepatide (db/db mice [1]; within 72 h of the first administration, equal dose 0.15 mg/kg, FIG. 11): dose-dependent and better than that of positive drug Tirzepatide
- Insulin in serum (db/db mice [2]; 0.05 mg/kg s.c. once every three days, Mean ± SD): 37649.0 ± 3597.0ª nIU/mL
- Fasting blood glucose (db/db mice [2]; 0.05 mg/kg s.c. once every three days, Day 0 (before administration, baseline), Mean ± SD): 23.18 ± 1.15 mmol/L
- Fasting blood glucose (db/db mice [2]; 0.05 mg/kg s.c. once every three days, Day 7, Mean ± SD): 21.68 ± 1.77^b mmol/L
- Fasting blood glucose (db/db mice [2]; 0.05 mg/kg s.c. once every three days, Day 13, Mean ± SD): 21.68 ± 1.11 mmol/L
- Fasting blood glucose (db/db mice [2]; 0.05 mg/kg s.c. once every three days, Day 19, Mean ± SD): 24.30 ± 1.41^c mmol/L
- Fasting blood glucose (db/db mice [2]; 0.05 mg/kg s.c. once every three days, Day 25, Mean ± SD): 18.32 ± 1.37^c mmol/L
- Fasting blood glucose (db/db mice [2]; 0.05 mg/kg s.c. once every three days, Day 31, Mean ± SD): 20.15 ± 1.91^c mmol/L
- HbA1C (db/db mice [2]; [5]): 5.18 ± 0.23
- HbA1C% (db/db mice [2]; [5]): 4.07 ± 0.13ª %
- Insulin in serum (db/db mice [2]; 0.15 mg/kg s.c. once every three days, Mean ± SD): 30897.0 ± 5634.0^a nIU/mL
- Fasting blood glucose (db/db mice [2]; 0.15 mg/kg s.c. once every three days, Day 0 (before administration, baseline), Mean ± SD): 23.17 ± 1.19 mmol/L
- Fasting blood glucose (db/db mice [2]; 0.15 mg/kg s.c. once every three days, Day 7, Mean ± SD): 22.78 ± 1.11^a mmol/L
- Fasting blood glucose (db/db mice [2]; 0.15 mg/kg s.c. once every three days, Day 13, Mean ± SD): 21.58 ± 1.13 mmol/L
- Fasting blood glucose (db/db mice [2]; 0.15 mg/kg s.c. once every three days, Day 19, Mean ± SD): 26.14 ± 1.05^b mmol/L
- Fasting blood glucose (db/db mice [2]; 0.15 mg/kg s.c. once every three days, Day 25, Mean ± SD): 15.70 ± 1.50^c mmol/L
- Fasting blood glucose (db/db mice [2]; 0.15 mg/kg s.c. once every three days, Day 31, Mean ± SD): 20.38 ± 1.87^c mmol/L
- HbA1C% (db/db mice [2]; [3]): 4.04 ± 0.14ª %
- Insulin in serum (db/db mice [2]; 0.5 mg/kg s.c. once every three days, Mean ± SD): 32774.0 ± 6290.0^a nIU/mL
- Fasting blood glucose (db/db mice [2]; 0.5 mg/kg s.c. once every three days, Day 0 (before administration, baseline), Mean ± SD): 22.99 ± 1.35 mmol/L
- Fasting blood glucose (db/db mice [2]; 0.5 mg/kg s.c. once every three days, Day 7, Mean ± SD): 15.54 ± 1.49^c mmol/L
- Fasting blood glucose (db/db mice [2]; 0.5 mg/kg s.c. once every three days, Day 13, Mean ± SD): 16.79 ± 1.20^c mmol/L
- Fasting blood glucose (db/db mice [2]; 0.5 mg/kg s.c. once every three days, Day 19, Mean ± SD): 13.26 ± 1.91^c mmol/L
- Fasting blood glucose (db/db mice [2]; 0.5 mg/kg s.c. once every three days, Day 25, Mean ± SD): 11.85 ± 1.74^c mmol/L
- Fasting blood glucose (db/db mice [2]; 0.5 mg/kg s.c. once every three days, Day 31, Mean ± SD): 16.41 ± 1.68^c mmol/L
- non-fasting blood glucose after the first administration (db/db mice [2]; BG128 dose groups 0.05, 0.15, 0.5 mg/kg s.c., 0-72 h): decreased rapidly within 24 h after the first administration
- body weight during the first administration (db/db mice [2]; Tirzepatide 0.15 mg/kg, BG128 0.05, 0.15, 0.5 mg/kg s.c., FIG. 8 and 9): positively correlated with the administration dose
- food intake after the first administration vs db/db-ND group (db/db mice [2]; Tirzepatide 0.15 mg/kg, BG128 0.05, 0.15, 0.5 mg/kg s.c., FIG. 10): positively correlated with the administration dose
- animal body weight loss rate compared with Tirzepatide (db/db mice [2]; equal dose (0.15 mg/kg s.c.), FIG. 8 and 9): better than that of Tirzepatide administration group
- decrease in food intake compared with Tirzepatide (db/db mice [2]; equal dose (0.15 mg/kg s.c.), FIG. 10): significantly greater than that of the positive control group Tirzepatide
- non-fasting blood glucose after the first administration (db/db mice [2]; high-dose group 0.5 mg/kg s.c., 24 h-72 h after administration): maintained in a relatively low range
